Measurements: ChEMBL document CHEMBL4004838, “Design and synthesis of novel phenyl -1, 4-beta-carboline-hybrid molecules as potential anticancer agents” (Eur J Med Chem, 2017)
≈ marks a conversion by molar mass, not a printed value.

Tests used:
HT-29 = experiment: Growth inhibition of human HT-29 cells incubated for 48 hrs by sulforhodamine B assay; assay type: functional; settings: HT-29, 48 h
SF-539 = experiment: Growth inhibition of human SF539 cells incubated for 48 hrs by sulforhodamine B assay; assay type: functional; settings: SF-539, 48 h
OVCAR-8 [1] = experiment: Growth inhibition of human OVCAR8 cells incubated for 48 hrs by sulforhodamine B assay; assay type: functional; settings: OVCAR-8, 48 h
T47D = experiment: Growth inhibition of human T47D cells incubated for 48 hrs by sulforhodamine B assay; assay type: functional
NCI/ADR-RES = experiment: Growth inhibition of human NCI-ADR-RES cells assessed as cell growth at 0.01 uM incubated for 48 hrs by sulforhodamine B assay relative to control; assay type: functional; settings: read-out: Activity
SK-OV-3 [2] = experiment: Growth inhibition of human SKOV3 cells assessed as cell growth at 0.01 uM incubated for 48 hrs by sulforhodamine B assay relative to control; assay type: functional; settings: SK-OV-3, 48 h, read-out: Activity
786-0 = experiment: Growth inhibition of human 786-0 cells assessed as cell growth at 0.01 uM incubated for 48 hrs by sulforhodamine B assay relative to control; assay type: functional; settings: 786-0, 48 h, read-out: Activity
OVCAR-8 [3] = experiment: Growth inhibition of human OVCAR8 cells assessed as cell growth at 0.1 uM incubated for 48 hrs by sulforhodamine B assay relative to control; assay type: functional; settings: OVCAR-8, 48 h, read-out: Activity
ACHN = experiment: Growth inhibition of human ACHN cells assessed as cell growth at 0.1 uM incubated for 48 hrs by sulforhodamine B assay relative to control; assay type: functional; settings: read-out: Activity
RXF 393 = experiment: Growth inhibition of human RXF393 cells assessed as cell growth at 0.1 uM incubated for 48 hrs by sulforhodamine B assay relative to control; assay type: functional; settings: RXF 393, 48 h, read-out: Activity
MDA-MB-231 = experiment: Growth inhibition of human MDA-MB-231 cells assessed as cell growth at 0.1 uM incubated for 48 hrs by sulforhodamine B assay relative to control; assay type: functional; settings: MDA-MB-231, 48 h, read-out: Activity
K562 [4] = experiment: Growth inhibition of human K562 cells assessed as cell growth at 1 uM incubated for 48 hrs by sulforhodamine B assay relative to control; assay type: functional; settings: K562, 48 h, read-out: Activity
HCC 2998 = experiment: Growth inhibition of human HCC2998 cells assessed as cell growth at 1 uM incubated for 48 hrs by sulforhodamine B assay relative to control; assay type: functional; settings: HCC 2998, 48 h, read-out: Activity
HCT-15 [5] = experiment: Growth inhibition of human HCT15 cells assessed as cell growth at 1 uM incubated for 48 hrs by sulforhodamine B assay relative to control; assay type: functional; settings: HCT-15, 48 h, read-out: Activity
OVCAR-8 [6] = experiment: Growth inhibition of human OVCAR8 cells assessed as cell growth at 1 uM incubated for 48 hrs by sulforhodamine B assay relative to control; assay type: functional; settings: OVCAR-8, 48 h, read-out: Activity
K562 [7] = experiment: Growth inhibition of human K562 cells assessed as cell growth at 100 uM incubated for 48 hrs by sulforhodamine B assay relative to control; assay type: functional; settings: K562, 48 h, read-out: Activity
HCT-15 [8] = experiment: Growth inhibition of human HCT15 cells assessed as cell growth at 100 uM incubated for 48 hrs by sulforhodamine B assay relative to control; assay type: functional; settings: HCT-15, 48 h, read-out: Activity
OVCAR-8 [9] = experiment: Growth inhibition of human OVCAR8 cells assessed as cell growth at 100 uM incubated for 48 hrs by sulforhodamine B assay relative to control; assay type: functional; settings: OVCAR-8, 48 h, read-out: Activity
SK-OV-3 [10] = experiment: Growth inhibition of human SKOV3 cells assessed as cell growth at 100 uM incubated for 48 hrs by sulforhodamine B assay relative to control; assay type: functional; settings: SK-OV-3, 48 h, read-out: Activity
Albumin [11] = molecular target: T1, Albumin (Bos taurus, UniProt P02769); experiment: Binding affinity to Bovine serum albumin assessed as fluorescence quenching at 0.1 to 1 uM at […] by fluorescence spectroscopic assay; assay type: ADME; settings: cattle, isolated protein
T1 sequence (P02769 whole entry): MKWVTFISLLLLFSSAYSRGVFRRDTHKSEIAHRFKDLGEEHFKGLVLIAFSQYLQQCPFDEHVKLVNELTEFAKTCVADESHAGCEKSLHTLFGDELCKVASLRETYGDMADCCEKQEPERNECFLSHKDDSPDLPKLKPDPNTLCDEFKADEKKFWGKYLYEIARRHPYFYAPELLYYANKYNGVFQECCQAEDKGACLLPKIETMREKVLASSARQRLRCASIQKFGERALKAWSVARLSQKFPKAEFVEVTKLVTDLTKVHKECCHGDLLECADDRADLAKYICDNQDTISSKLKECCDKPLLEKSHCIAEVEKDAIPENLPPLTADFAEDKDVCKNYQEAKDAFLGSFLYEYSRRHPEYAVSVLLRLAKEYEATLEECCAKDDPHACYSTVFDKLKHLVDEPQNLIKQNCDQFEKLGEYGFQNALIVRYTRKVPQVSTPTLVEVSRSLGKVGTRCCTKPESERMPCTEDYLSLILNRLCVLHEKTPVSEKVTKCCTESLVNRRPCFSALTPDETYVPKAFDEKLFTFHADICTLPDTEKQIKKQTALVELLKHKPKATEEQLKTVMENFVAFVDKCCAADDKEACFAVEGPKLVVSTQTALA

Albumin [12] = molecular target: T1, Albumin; experiment: Binding affinity to Bovine serum albumin assessed as fluorescence quenching at […] by fluorescence spectroscopic assay; assay type: ADME; settings: cattle, isolated protein
SN12C [13] = experiment: Growth inhibition of human SN12C cells incubated for 48 hrs by sulforhodamine B assay; assay type: functional
SN12C [14] = experiment: Growth inhibition of human SN12C cells assessed as cell growth at 0.01 uM incubated for 48 hrs by sulforhodamine B assay relative to control; assay type: functional; settings: read-out: Activity
SN12C [15] = experiment: Growth inhibition of human SN12C cells assessed as cell growth at 0.1 uM incubated for 48 hrs by sulforhodamine B assay relative to control; assay type: functional; settings: read-out: Activity
SN12C [16] = experiment: Growth inhibition of human SN12C cells assessed as cell growth at 1 uM incubated for 48 hrs by sulforhodamine B assay relative to control; assay type: functional; settings: read-out: Activity
SN12C [17] = experiment: Growth inhibition of human SN12C cells assessed as cell growth at 100 uM incubated for 48 hrs by sulforhodamine B assay relative to control; assay type: functional; settings: read-out: Activity
MCF7 = experiment: Cytotoxicity against human MCF7 cells assessed as cell viability after 72 hrs by MTT assay; assay type: functional, cell-based; settings: MCF7, 72 h
LNCaP = experiment: Cytotoxicity against human LNCAP cells assessed as cell viability after 72 hrs by MTT assay; assay type: functional, cell-based
HepG2 = experiment: Cytotoxicity against human HepG2 cells assessed as cell viability after 72 hrs by MTT assay; assay type: functional, cell-based; settings: HepG2, 72 h
[18] = read-out: LC50 (the source's name)
[19] = read-out: pLC50 (the source's name) (converted)

c1ccc2[nH]c(-c3ccc(-c4nccc5c4[nH]c4ccccc45)cc3)nc2c1
GI50 (HT-29; read-out: GI50): 2.19 µM | CC50 (HT-29; [18]): 8.97 µM | TGI (HT-29; read-out: TGI): 4.43 µM | GI50 (HT-29; read-out: pGI50 (converted)): 2.19 µM | CC50 (HT-29; [19]): 8.91 µM | TGI (HT-29; read-out: pTGI (converted)): 4.47 µM | GI50 (SF-539; read-out: GI50): 1.89 µM | CC50 (SF-539; [18]): 7.17 µM | TGI (SF-539; read-out: TGI): 3.68 µM | GI50 (SF-539; read-out: pGI50 (converted)): 1.91 µM | CC50 (SF-539; [19]): 7.24 µM | TGI (SF-539; read-out: pTGI (converted)): 3.72 µM | GI50 (OVCAR-8 [1]): 3.31 µM | CC50 (OVCAR-8 [1]; [18]): > 1 µM | CC50 (OVCAR-8 [1]; read-out: pLC50 (converted)): > 100 µM | TGI (OVCAR-8 [1]; read-out: pTGI (converted)): 13.5 µM | GI50 (T47D; read-out: GI50): 2.02 µM | CC50 (T47D; [18]): 8.34 µM | TGI (T47D; read-out: TGI): 6.19 µM | GI50 (T47D; read-out: pGI50 (converted)): 2.04 µM | CC50 (T47D; [19]): 83.2 µM | TGI (T47D; read-out: pTGI (converted)): 6.17 µM | growth at 0.01 µM (NCI/ADR-RES): 99% | growth at 0.01 µM (SK-OV-3 [2]): 93% | growth at 0.01 µM (786-0): 89% | growth at 0.1 µM (OVCAR-8 [3]): 103% | growth at 0.1 µM (ACHN): 98% | growth at 0.1 µM (RXF 393): 108% | growth at 0.1 µM (MDA-MB-231): 94% | growth at 1 µM (K562 [4]): 100% | growth at 1 µM (HCC 2998): 96% | growth at 1 µM (HCT-15 [5]): 93% | growth at 1 µM (OVCAR-8 [6]): 99% | growth at 100 µM (K562 [7]): 59% | growth at 100 µM (HCT-15 [8]): 71% | growth at 100 µM (OVCAR-8 [9]): 28% | growth at 100 µM (SK-OV-3 [10]): 86% | Activity (Albumin [11]): Active

c1ccc2c3c([nH]c2c1)C(c1ccc(C2NCCc4c2[nH]c2ccccc42)cc1)NCC3 (racemic)
Activity (Albumin [12]): Dose-dependent effect | GI50 (HT-29; read-out: GI50): 2.8 µM | CC50 (HT-29; [18]): 3.92 µM | TGI (HT-29; read-out: TGI): 7.35 µM | GI50 (HT-29; read-out: pGI50 (converted)): 0.282 µM | CC50 (HT-29; [19]): 3.89 µM | TGI (HT-29; read-out: pTGI (converted)): 0.741 µM | GI50 (SF-539; read-out: GI50): 1.62 µM | CC50 (SF-539; [18]): 5.71 µM | TGI (SF-539; read-out: TGI): 3.04 µM | GI50 (SF-539; read-out: pGI50 (converted)): 1.62 µM | CC50 (SF-539; [19]): 5.75 µM | TGI (SF-539; read-out: pTGI (converted)): 3.02 µM | GI50 (SN12C [13]; read-out: GI50): 1.47 µM | CC50 (SN12C [13]; [18]): 6.31 µM | TGI (SN12C [13]; read-out: TGI): 3.05 µM | GI50 (SN12C [13]; read-out: pGI50 (converted)): 1.48 µM | CC50 (SN12C [13]; [19]): 6.31 µM | TGI (SN12C [13]; read-out: pTGI (converted)): 3.02 µM | GI50 (T47D; read-out: GI50): 1.31 µM | CC50 (T47D; [18]): 7.13 µM | TGI (T47D; read-out: TGI): 3.06 µM | GI50 (T47D; read-out: pGI50 (converted)): 1.32 µM | CC50 (T47D; [19]): 7.08 µM | TGI (T47D; read-out: pTGI (converted)): 3.09 µM | growth at 0.01 µM (SK-OV-3 [2]): 91% | growth at 0.01 µM (786-0): 96% | growth at 0.01 µM (SN12C [14]): 96% | growth at 0.1 µM (ACHN): 97% | growth at 0.1 µM (RXF 393): 101% | growth at 0.1 µM (SN12C [15]): 95% | growth at 0.1 µM (MDA-MB-231): 97% | growth at 1 µM (K562 [4]): 52% | growth at 1 µM (HCC 2998): 10% | growth at 1 µM (HCT-15 [5]): 24% | growth at 1 µM (SN12C [16]): 77% | growth at 100 µM (K562 [7]): 78% | growth at 100 µM (HCT-15 [8]): 90% | growth at 100 µM (SK-OV-3 [10]): -96% | growth at 100 µM (SN12C [17]): -93% | IC50 (MCF7): 3.34 µg/mL (≈ 7.98 µM) | IC50 (LNCaP): 5.52 µg/mL (≈ 13.2 µM) | IC50 (HepG2): 4.43 µg/mL (≈ 10.6 µM)
